{"source": "patent EP0332679B1", "about": "“ANTIVIRAL CO[…] […] AND METHOD FOR TREATING […]” (NEW YORK UNIVERSITY, priority 1987, dated 1989)", "key": {"[1]": {"test_system": "Radiation Leukemia Virus (RadLV)", "assay": "H-2 antigen expression in thymocytes (FACS) after intrathymic inoculation of radiation leukemia virus", "assay_type": "in vivo, B10.T(6R) mice", "source_text": "The intrathymic inoculation of murine radiation leukemia virus in susceptible strains of mice results in the malignant transformation of the thymocytes and the development of overt leukemia (as described in Meruelo, D. et al J. Exp. Med. 147: 470-487, 1978). […] Among the early events which follow the viral infection in some mouse strains is a dramatic increase in the cell surface expression of class I H-2 antigens. This increase is then followed by a reduction in the expression of these antigens after the malignant transformation and subsequent development of leukemia. The changes in H-2 antigen expression have been utilized to monitor viral infectivity and to determine the effects of Hy and Ps on the level of infectivity of this virus.\nMurine radiation leukemia virus (RadLV) was inoculated intrathymically into B10.T(6R) mice as described in Meruelo et al (supra). Groups of six mice were treated 24 h later with 30 µg per mouse of compound Hy administered intraperitoneally in isotonic saline solution. The mice were sacrificed ten days later and the expression of Class I H-2 antigens determined by analysis with a fluorescence activated cell sorter (Ortho Cytofluorograph Model 50H, Ortho Diagnostic Systems, Westwood, MA) (FACS), using X-56 anti-H-2D^d mouse monospecific antibodies (as described in Meruelo, et al supra; similar antibodies are available as ATCC No. HB75, American Type Culture Collection, Rockville, MD)."}, "[2]": {"conditions": "in vivo; cited from earlier work"}, "[3]": {"conditions": "in vivo; cited from earlier work", "remark": "listed apart in the source"}, "[4]": {"test_system": "Friend Leukemia Virus (FV)", "assay": "Splenomegaly after Friend Leukemia Virus infection, compound given intraperitoneally 24 h after intravenous virus", "assay_type": "in vivo, BALB/c mice", "conditions": "for Spleen weight: individual mice", "source_text": "Friend Leukemia virus (FV) an aggressive retrovirus induces an acute erythroleukemia in sensitive strains of mice such as BALB/c and NIH SWISS mice (as described in Friend, C. J. Exp. Med. 105: 307-324, 1957; Friend, C. et al Nat. Cancer Inst. Monogr. 22: 505-522, 1966; Friend, C. et al Proc. Natl. Acad. Sci. U.S.A. 68: 378-383, 1971). The malignant transformation is the result of the combined activities of the spleen focus forming virus (SFFV) and the ecotropic murine Friend Leukemia helper virus (F-MuLv). The acute erythroleukemia is characterized by hepatosplenomegaly (a marked increase in the size of the spleen and liver) and a severe anemia.\nFriend Leukemia virus was prepared by homogenizing the enlarged spleen of a mouse previously infected with FV, 10 days after intravenous virus injection. The spleen was homogenized in phosphate buffered saline in a volume equal to 10 times the weight of the isolated spleen.\nThe effects of Hy and Ps on the increase in spleen size (splenomegaly) of BALB/c mice (Jackson Labs, Bar Harbor, ME) was examined. […] The animals were then sacrificed ten days later and their spleens weighed."}, "[5]": {"test_system": "Friend Leukemia Virus (FV)", "assay": "Splenomegaly after simultaneous intravenous co-administration of compound with FV", "assay_type": "in vivo, mice", "conditions": "for Spleen Weights: individual mice", "procedure": "A different experimental design was also tested involving the simultaneous intravenous co-administration of Ps with the FV complex. In this case, the viral preparation was mixed with Ps at various concentrations and the mixture was injected into the mouse tail vein in a final volume of 0.5ml. The mice were sacrificed ten days later, the spleens weighed and the level of inhibition of splenomegaly subsequently determined."}, "[6]": {"test_system": "Friend Leukemia Virus (FV)", "assay": "Liver function (serum liver-associated proteins) of FV infected mice with or without compound", "assay_type": "in vivo, BALB/c mice", "conditions": "for CHOLEST: pooled serum of 4 mice", "source_text": "BALB/c mice were inoculated with FV at a concentration of 2x10⁵ FFU. Each group of animals contained 4 mice, and analyses were done in pooled aliquots.\nIn Table 3, BU = Total Bilirubin, AP = Alkaline phosphatase, LDH = Lactate dehydrogenase, SGOT = Serum glutamyl aminotransferase, SGPT = […], and GGT = Gamma-glutamyl-transpeptidase."}, "[7]": {"conditions": "FV 2x10^5 FFU, 2 injections 80 μg/mouse"}, "[8]": {"conditions": "FV 2x10^5 FFU, single i.p. injection 80 μg/mouse"}, "[9]": {"conditions": "FV 10^6 FFU, 2 injections 80 µg/mouse"}, "[10]": {"conditions": "FV 10^6 FFU, single i.p. injection 80 µg/mouse"}, "[11]": {"conditions": "IPFVIVPS: FV intraperitoneal, Ps intravenous, pooled serum"}, "[12]": {"conditions": "IVFVIPPS: FV intravenous, Ps intraperitoneal, pooled serum"}}, "note": "Several values for one entry are separate records, joined by “and”; a condition that tells them apart may be missing. Identical values can stand only once. Entries after “also recorded” stand apart in the source; their conditions may differ.", "data": [{"smiles": "Cc1cc(O)c2c(=O)c3c(O)cc(O)c4c5c(O)cc(O)c6c(=O)c7c(O)cc(C)c8c1c2c(c34)c(c78)c65", "note": "[Hy, hypericin]", "values": [{"measurement": "% inhibition (of virus-induced increase in H-2 antigen expression)", "setting": "[1]; mouse, in vivo", "value": "(1) % inhibition = 100-[(Treated 30 μg) - (Base Line) / Virus Induced - Base Line] x100=82%"}, {"measurement": "% of cells stained with antibody", "setting": "[1]; mouse, in vivo, ip", "value": "76.7% and 77.2% and 96.3% and 84.8% and 54.0% and 97.8%"}, {"measurement": "% of cells stained with antibody, mean (x̄)", "setting": "[1]; mouse, in vivo, ip", "value": "x̄=81.13%"}, {"measurement": "effect on RadLV-induced increase in H-2 expression (in words)", "setting": "[1]; mouse, in vivo, ip", "value": "significant inhibition in the increase in H-2 expression in four of the six mice tested"}, {"measurement": "effect on the human organism (in words)", "setting": "[2]", "value": "tonic and tranquilizing effect"}, {"measurement": "photosensitivity (in words)", "setting": "[3]", "value": "produce photosensitivity upon ingestion"}]}, {"smiles": "Cc1cc(O)c2c(=O)c3c(O)cc(O)c4c5c(O)cc(O)c6c(=O)c7c(O)cc(CO)c8c1c2c(c34)c(c65)c78", "note": "[Ps, pseudohypericin]", "values": [{"measurement": "% Inhib (splenomegaly)", "setting": "[4]; [7]", "value": 81.7, "unit": "%"}, {"measurement": "Net change from control (spleen weight)", "setting": "[4]; [7]", "value": "Net change from control=0.1292"}, {"measurement": "Spleen weight, mean (x̄)", "setting": "[4]; [7]", "value": "x̄=0.3138±0.1197 g"}, {"measurement": "% Inhib (splenomegaly)", "setting": "[4]; FV 2x10^5 FFU, 2 injections 80 μg/mouse, listed as PS", "value": "% Inhib=81.15"}, {"measurement": "% Inhib (splenomegaly)", "setting": "[4]; [8]", "value": 89.6, "unit": "%"}, {"measurement": "Net change from control (spleen weight)", "setting": "[4]; [8]", "value": "Net change from control=0.0714"}, {"measurement": "Spleen weight, mean (x̄)", "setting": "[4]; [8]", "value": "x̄=0.2560±0.0723 g"}, {"measurement": "% Inhib (splenomegaly)", "setting": "[4]; FV 2x10^5 FFU, single i.p. injection 80 μg/mouse, listed as PS", "value": "% Inhib=89.58"}, {"measurement": "% Inhib (splenomegaly)", "setting": "[4]; [9]", "value": 90.7, "unit": "%"}, {"measurement": "Net change from control (spleen weight)", "setting": "[4]; [9]", "value": "Net change from control=0.0841"}, {"measurement": "Spleen weight, mean (x̄)", "setting": "[4]; [9]", "value": "x̄=0.2687±0.0621 g"}, {"measurement": "% Inhib (splenomegaly)", "setting": "[4]; FV 10^6 FFU, 2 injections 80 µg/mouse, listed as PS", "value": "% Inhib=90.70"}, {"measurement": "% Inhib (splenomegaly)", "setting": "[4]; [10]", "value": 93.8, "unit": "%"}, {"measurement": "Net change from control (spleen weight)", "setting": "[4]; [10]", "value": "Net change from control=0.0558"}, {"measurement": "Spleen weight, mean (x̄)", "setting": "[4]; [10]", "value": "x̄=0.2404±0.0482 g"}, {"measurement": "% Inhib (splenomegaly)", "setting": "[4]; FV 10^6 FFU, single i.p. injection 80 µg/mouse, listed as PS", "value": "% Inhib=93.82"}, {"measurement": "Spleen weight", "setting": "[4]; [7]", "value": "0.2722 Spleen weight (g ) and 0.2438 Spleen weight (g ) and 0.4924 Spleen weight (g ) and 0.2469 Spleen weight (g )"}, {"measurement": "Spleen weight", "setting": "[4]; [8]", "value": "0.2208 Spleen weight (g ) and 0.1791 Spleen weight (g ) and 0.3457 Spleen weight (g ) and 0.2784 Spleen weight (g )"}, {"measurement": "Spleen weight", "setting": "[4]; FV 10^6 FFU i.v., 2 daily consecutive i.p. injections of 80 µg/mouse", "value": "0.2457 Spleen weight (g ) and 0.3400 Spleen weight (g ) and 0.2938 Spleen weight (g ) and 0.1956 Spleen weight (g )"}, {"measurement": "Spleen weight", "setting": "[4]; FV 10^6 FFU i.v., single i.p. injection 80 µg/mouse 24 h later, sacrificed ten days later", "value": "0.2831 Spleen weight (g ) and 0.2761 Spleen weight (g ) and 0.2215 Spleen weight (g ) and 0.1810 Spleen weight (g )"}, {"measurement": "% inhibition (splenomegaly)", "setting": "[5]; 5mcg per mouse i.v. with FV", "value": 75.44, "unit": "%"}, {"measurement": "Spleen Weights, mean (x̄)", "setting": "[5]; 5mcg per mouse i.v. with FV", "value": "x̄=0.3862 ±0.0353 grams"}, {"measurement": "% inhibition (splenomegaly)", "setting": "[5]; 5mcg per mouse i.v. with FV, listed as PS", "value": "= 75.44%"}, {"measurement": "% inhibition (splenomegaly)", "setting": "[5]; 20 mcg per mouse i.v. with FV", "value": 100, "unit": "%"}, {"measurement": "Spleen Weights, mean (x̄)", "setting": "[5]; 20 mcg per mouse i.v. with FV", "value": "x̄=0.1614 ±0.0253 grams"}, {"measurement": "% inhibition (splenomegaly)", "setting": "[5]; 20 mcg per mouse i.v. with FV, listed as PS", "value": 100, "unit": "%"}, {"measurement": "% inhibition (splenomegaly)", "setting": "[5]; 50mcg per mouse i.v. with FV", "value": 100, "unit": "%"}, {"measurement": "Spleen Weights, mean (x̄)", "setting": "[5]; 50mcg per mouse i.v. with FV", "value": "x̄=0.1572 ±0.0217 grams"}, {"measurement": "% inhibition (splenomegaly)", "setting": "[5]; 50mcg per mouse i.v. with FV, listed as PS", "value": 100, "unit": "%"}, {"measurement": "Spleen Weights", "setting": "[5]; 5mcg per mouse i.v. mixed with FV, sacrificed ten days later", "value": "0.3425 grams and 0.3766 grams and 0.4005 grams and 0.4255 grams"}, {"measurement": "Spleen Weights", "setting": "[5]; 20 mcg per mouse i.v. mixed with FV", "value": "0.1655 grams and 0.1426 grams and 0.1433 grams and 0.1966 grams"}, {"measurement": "Spleen Weights", "setting": "[5]; 50mcg per mouse i.v. mixed with FV", "value": "0.1830 grams and 0.1674 grams and 0.1422 grams and 0.1365 grams"}, {"measurement": "CHOLEST", "setting": "[6]; IPFVIVPS: FV intraperitoneal (2x10^5 FFU), Ps intravenous", "value": 137, "unit": "mg/dL"}, {"measurement": "ALBUMIN", "setting": "[6]; [11]", "value": 3.2, "unit": "g/dL"}, {"measurement": "AP (Alkaline phosphatase)", "setting": "[6]; [11]", "value": 200, "unit": "IU/l"}, {"measurement": "BU (Total Bilirubin)", "setting": "[6]; [11]", "value": 0.3, "unit": "mg/dL"}, {"measurement": "GGT (Gamma-glutamyl-transpeptidase)", "setting": "[6]; [11]", "value": 4, "unit": "miu/ml"}, {"measurement": "LDH (Lactate dehydrogenase)", "setting": "[6]; [11]", "value": 2305, "unit": "IU/l"}, {"measurement": "SGOT", "setting": "[6]; [11]", "value": 244, "unit": "IU/l"}, {"measurement": "SGPT", "setting": "[6]; [11]", "value": 135, "unit": "IU/l"}, {"measurement": "Total PROTEIN", "setting": "[6]; [11]", "value": 5.5, "unit": "g/dL"}, {"measurement": "CHOLEST", "setting": "[6]; IVFVIPPS: FV intravenous (2x10^5 FFU), Ps intraperitoneal", "value": 109, "unit": "mg/dL"}, {"measurement": "ALBUMIN", "setting": "[6]; [12]", "value": 3.4, "unit": "g/dL"}, {"measurement": "AP (Alkaline phosphatase)", "setting": "[6]; [12]", "value": 226, "unit": "IU/l"}, {"measurement": "BU (Total Bilirubin)", "setting": "[6]; [12]", "value": 0.1, "unit": "mg/dL"}, {"measurement": "LDH (Lactate dehydrogenase)", "setting": "[6]; [12]", "value": 3303, "unit": "IU/l"}, {"measurement": "SGOT", "setting": "[6]; [12]", "value": 213, "unit": "IU/l"}, {"measurement": "SGPT", "setting": "[6]; [12]", "value": 99, "unit": "IU/l"}, {"measurement": "Total PROTEIN", "setting": "[6]; [12]", "value": 5.7, "unit": "g/dL"}, {"measurement": "effect on RadLV-induced increase in H-2 expression (in words)", "setting": "[1]; 30 µg per mouse i.p. 24 h after viral inoculation", "value": "No effects on H-2 expression"}, {"measurement": "mean fluorescent intensity in fluorescent units", "setting": "[1]; individual mice, 30 μg/mouse i.p. 24 h after intrathymic RadLV, thymocytes ten days later", "value": "(713.3) fluorescent units; also recorded: (639) fluorescent units"}, {"measurement": "% of cells stained with antibody", "setting": "[1]; individual mice, 30 μg/mouse i.p. 24 h after intrathymic RadLV, thymocytes ten days later, anti-H-2D^d antibody", "value": "97.4% and 94.3%"}]}]}
